# Experimental data as given in patent US20060258647A1, “Treatment of maladaptive substance use with cholecystokinin (CCK) antagonists” (The Regents of the University of California, priority 2005, published 2006).
# Entries after “also recorded” stand apart in the source; their conditions may differ.
# Assays:
# Sprague-Dawley rats [1] = test: Expression of morphine CPP after microinjection into anterior or posterior nucleus accumbens (NAcc); format: in vivo, rat; conditions: CCK-4 10 ng, CCK-8 100 ng (legend 10 ng), raclopride 4 μg; for expression of morphine CPP, microinjected independently into anterior NAcc: L-365, 260 1 ng (p=0.002), SCH-23390 2 μg; for expression of morphine CPP, microinjected independently into anterior NAcc / expression of morphine CPP, microinjected independently into posterior NAcc: lorglumide 15 ng; for effect of co-injection on the L-365, 260 effect (attenuation) on morphine CPP, anterior NAcc: co-injected with L-365, 260 into anterior NAcc; for effect of co-injection on the L-365, 260 effect (potentiation) on morphine CPP, posterior NAcc: co-injected with L-365, 260 into posterior NAcc; for expression of morphine CPP, microinjected independently into posterior NAcc: L-365, 260 1 ng (p=0.021), SCH-23390 2 μg (p=0.049)
# Method: (§1) 68 male Sprague-Dawley rats (Charles River, Wilmington, Mass.) weighing 275-300 grams at the onset of the study were individually housed in a temperature controlled environment (70° F.) and kept on a 12 hour light/dark cycle. Rat chow and water were available ad libitum. Animals were tested at the same time during their light cycle each day. All experimental protocols were approved by the Institutional Animal Care and Use Committee and were conducted in accordance with the Guide for the Care and Use of Laboratory Animals (N1H). 22 rats were used for systemic injections and the remaining rats were cannulated for NAcc microinjections.
# Animals were anesthetized with a ketamine-xylazine mixture and maintained on isoflurane (0.5 liter/min) as needed for the duration of surgery. Animals were placed in a stereotaxic frame and were implanted with bilateral 26-gauge stainless steel chronic guide cannulae (Plastics One, Roanoke, V A) into either the Anterior (AP, 2.2; ML, ±1.1; DV, −5.5) or Posterior (AP, 1.2; ML, ±1.1; DV, −5.5) NAcc. Cannulae were secured to the skull with dental cement. At the end of the surgical procedure, animals were treated with penicillin and topical antibiotics. A stainless steel dummy cannula (Plastics One) was inserted into each guide cannula and remained in place when the guide cannulae were not in use. Animals were allowed a 1-week recovery period prior to behavioral testing.
# (§2) Animals were trained in 3 chamber place conditioning boxes (Med Associates) in which 2 chambers (28×21×21 cm) that differed in color (one black, one white), light level, and texture were separated by a neutral gray chamber (12×21×21). During the initial baseline period, animals were placed in the central chamber and were allowed to freely explore all 3 chambers for a period of 30 minutes. Beam breaks, entries, and time spent in each chamber were automatically recorded using infrared beams. […] During each conditioning session, animals were injected with either morphine or saline and were then immediately confined to one of the two larger chambers for 60 minutes. Rats received 2 conditioning sessions per day for a period of 4 days. Conditioning sessions were separated by a minimum period of 5 hours. Animals were tested for expression of conditioned place preference 1 day after the final conditioning session. Drug side and order were counter-balanced. […] Systemic L-365, 260 was administered 30 minutes before the onset of CPP testing.
# All injection sites were based on the atlas of Paxinos and Watson (1998). Bilateral injections were made into either the Anterior (AP, 2.2; ML, +1.1; DV, −5.5) or Posterior (AP, 1.2; ML, ±1.1; DV, −5.5) NAcc. Each injection was made using a 1 μl syringe (Hamilton, Reno, Nev.) attached to 20 cm of PE 50 tubing connected to a 33-gauge injection cannula (Plastics One). Microinjections were given at a rate of 0.5 μl per minute using a syringe pump (kd Scientific, Holliston, M A). A volume of 0.5 μl was injected into each side of the NAcc. Injection cannulae extended 2 mm beyond guide cannulae and were left in place for 1 minute following microinjections to minimize the backflow of drug solution. 10 minutes after microinjection was completed, animals were placed into the central CPP chamber and allowed to explore for a period of 30 minutes. Animals received a maximum of four bilateral NAcc microinjections. The number of microinjections each animal received was determined by the persistence of place preference. […] Microinjection drug order was counterbalanced and began a minimum of one day following the test for expression of morphine CPP. Animals were tested for baseline expression of morphine CPP 24 hours following each microinjection to ensure the return to pre-injection baseline. At the conclusion of the experiment, animals were anesthetized with pentobarbital and perfused intracardially through the ascending aorta with 0.1M phosphate buffered saline followed by 10% formalin. […]
# Rats = test: Ethanol consumption / reinstatement with foot shock; format: in vivo, rat
# Method: Rats (n=18) were administered 3 daily doses of systemic L-365 (1 mg/kg) prior to a one-hour ethanol (10%) access session. On the second day of L-365, 260 administration, animals were administered 0.8 mA of shock (0.5 seconds every 40 seconds for a period of 15 minutes) in ethanol access chambers directly prior to the onset of their one-hour access session. […] This was a randomized cross over design with each animal serving as its own control.
# L-365, 260 had no effect on ethanol consumption when shock was administered during extinction (n=12). Animals were administered 3 daily doses of systemic L-365, 260 after ethanol consumption was extinguished. On the second day of L-365, 260 administration, animals were administered 0.8 mA of shock (0.5 seconds every 40 seconds for a period of 15 minutes) in the ethanol access chambers directly prior to the onset of their one-hour extinction session. This was a randomized cross over design with each animal serving as its own control.
# L-365 had no effect on ethanol reinstatement when shock was administered on the first day of re-initiation of ethanol access (n=12). Animals were administered 3 daily doses of systemic L-365, 260 after ethanol consumption was extinguished. On the first day of L-365, 260 administration, animals were administered 0.8 mA of shock (0.5 seconds every 40 seconds for a period of 15 minutes) in the ethanol access chambers directly prior to the onset of their one-hour reinstatement session. This was a randomized cross over design with each animal serving as its own control.
# humans = conditions: literature (Murphy et al., 1993 and others); cited from earlier work
# Sprague-Dawley rats [2] = test: Expression of morphine conditioned place preference (CPP) after systemic administration; format: in vivo, rat; conditions: 1 mg/kg systemic (i.p.)
# Method: as §1
# as §2, with “testing. […]” for “testing.”
# *Difference scores were calculated by subtracting the time spent in the saline paired chamber from the time spent in the morphine paired chamber during a test session. […]
# [3] = Jackson et al., 1994; cited from earlier work
Compound,"expression of morphine CPP, microinjected independently into anterior NAcc (Sprague-Dawley rats [1])","expression of morphine CPP, microinjected independently into anterior NAcc (Sprague-Dawley rats [1]; listed as Raclopride)","effect of co-injection on the L-365, 260 effect (attenuation) on morphine CPP, anterior NAcc (Sprague-Dawley rats [1])","effect of co-injection on the L-365, 260 effect (potentiation) on morphine CPP, posterior NAcc (Sprague-Dawley rats [1])","expression of morphine CPP, microinjected independently into posterior NAcc (Sprague-Dawley rats [1])","expression of morphine CPP, microinjected independently into posterior NAcc (Sprague-Dawley rats [1]; listed as Raclopride)","ethanol consumption on the two days following shock (Rats; 3 daily systemic doses 1 mg/kg before one-hour ethanol (10%) access, 0.8 mA shock on second day, n=18, vs saline controls)","ethanol consumption when shock was administered during extinction (Rats; 3 daily systemic doses after ethanol consumption was extinguished, shock on second day, n=12)","ethanol reinstatement when shock was administered on the first day of re-initiation of ethanol access (Rats; 3 daily systemic doses after extinction, shock on first day, n=12)",side effects on administration to humans (humans),"expression of morphine CPP (Sprague-Dawley rats [2]; after acquisition of CPP, tested immediately after injection, p=0.006)","expression of morphine CPP (Sprague-Dawley rats [2]; tested 24 hours after injection, p=0.0009)","expression of morphine CPP (Sprague-Dawley rats [2]; tested 72 hours after injection, p=0.004)",differentiation from saline in animal discrimination studies [3],"expression of morphine CPP, microinjected independently into anterior NAcc (Sprague-Dawley rats [1]; listed as Lorglumide)","expression of morphine CPP, microinjected independently into posterior NAcc (Sprague-Dawley rats [1]; listed as Lorglumide)"
CCN1CCC[C@H]1CNC(=O)c1c(O)c(Cl)cc(Cl)c1OC [raclopride],has no effect,had no effect,"reverse the effects of L-365, 260","reverse the effects of L-365, 260",has no effect,had no effect,–,–,–,–,–,–,–,–,–,–
"Cc1cccc(NC(=O)N[C@@H]2N=C(c3ccccc3)c3ccccc3N(C)C2=O)c1 [L-365, 260, (3R-(+)-2,3-dihydro-1-methyl-2-oxo-5-phenyl-1H-1,4-benzodiazepin-3-yl)-N′-(3-methylphenyl)urea]",attenuates,–,–,–,potentiates,–,consumed significantly less ethanol than saline controls,had no effect,had no effect,no significant side effects,attenuates,attenuates,attenuates,cannot be differentiated from saline,–,–
"CCK-8: cholecystokinin peptide, CCKB receptor ligand precursor, obtained from Research Biochemicals",neither of which had an effect; also recorded: neither of which has an effect,–,reversed,reversed,neither of which had an effect; also recorded: neither of which has an effect,–,–,–,–,–,–,–,–,–,–,–
CCCCCN(CCCCC)C(=O)C(CCC(=O)O)NC(=O)c1ccc(Cl)c(Cl)c1 (stereo not shown) [lorglumide],has no effect,–,–,–,has no effect,–,–,–,–,–,–,–,–,–,had no effect,had no effect
CCK-4,neither of which had an effect; also recorded: neither of which has an effect,–,reversed,reversed,neither of which had an effect; also recorded: neither of which has an effect,–,–,–,–,–,–,–,–,–,–,–
